Measurements reported in paper PMC10914731, “Homo-BacPROTAC-induced degradation of ClpC1 as a strategy against drug-resistant mycobacteria” (Nature Communications, 2024).
Values after ≈ are worked out from the molar mass of the structure shown. Values joined by “and” are separate entries in the source; they are usually repeats but may differ in a detail not shown here. Equal entries are not always repeated. Where two headings read alike, the source gives them in different places.

Columns and labels:
[1] = biological target: ClpC1 NTD protein (M. tuberculosis) (Mycobacterium tuberculosis, UniProt P9WPC9); assay: biochemical; assay type: binding
in vitro = settings: human; for Papp B→A: basolateral to apical
Method in brief: (§1)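 Permeability across Caco-2 monolayers was measured in both directions, apical-to-basolateral and basolateral-to-apical, in 10^-6 cm s-1. Efflux ratio = P(B−A)/P(A−B). Intrinsic permeability is the mean of P(A−B) and P(B−A).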

Caco-2 monolayers = assay: in vitro
Method in brief: as §1

[2] = Hepatocyte stability, mice; assay type: in vitro ADME; settings: clearance in hepatocytes
Method in brief: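 Clearance, expressed as % of liver blood flow (% Qh), derived from parent-compound half-life by the well-stirred model, with HPLC-MS/MS quantitation after acetonitrile quench. Test compound at 1 µM final added to mouse hepatocyte suspension in 50% serum after 15–30 min acclimation at 37 °C; six samples over up to 6 h.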

[3] = assay type: in vitro ADME, Rat
[4] = assay type: in vitro ADME, Human
[5] = tested on: M. tuberculosis H37Rv (ATCC 27294); assay: microbe, parasite or virus in culture; assay type: cell-based
Msm 607 = assay: microbe, parasite or virus in culture; assay type: cell-based
Msm 700084 = assay: microbe, parasite or virus in culture; assay type: cell-based
[6] = Microsomal stability, human; assay type: in vitro ADME; settings: Human
Experimental: The kinetics of compound degradation in liver microsomes is assessed in an assay with 1 µmol/l of compound and 0.5 mg/ml liver microsomes in a medium of 100 mM Tris-HCl pH 7.5, 6.5 mM MgCl2 and 1 mM NADPH at 37 °C. The reaction is stopped at multiple time points by adding acetonitrile. After centrifugation, the compound concentration is measured in the supernatants by high-performance liquid chromatography (HPLC) tandem mass spectrometry (MS/MS). The results are fitted to a first-order decay and the half-lives are converted to clearance (stated as % of the liver blood flow (%Qh)) using the well-stirred liver model.

[7] = biological target: His6-tagged ClpC1-NTD substrate, M. smegmatis ClpC1P1P2 (UniProt A0R574+P9WPC9); assay: biochemical; assay type: biochemical
[8] = biological target: ClpC1-NTD substrate, M. tuberculosis ClpC1P1P2 (Mycobacterium tuberculosis, UniProt P9WPC9); assay: biochemical; assay type: biochemical
[9] = read-out: DC50, single measurements

Sequence of ClpC1-NTD substrate, M. tuberculosis ClpC1P1P2 (P9WPC5 whole entry): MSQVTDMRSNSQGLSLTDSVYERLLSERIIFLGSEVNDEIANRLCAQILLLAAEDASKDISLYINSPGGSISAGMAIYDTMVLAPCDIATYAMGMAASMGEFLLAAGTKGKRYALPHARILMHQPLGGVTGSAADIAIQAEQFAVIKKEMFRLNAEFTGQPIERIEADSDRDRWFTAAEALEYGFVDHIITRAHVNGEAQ
Sequence of ClpC1-NTD substrate, M. tuberculosis ClpC1P1P2 (P9WPC9 whole entry): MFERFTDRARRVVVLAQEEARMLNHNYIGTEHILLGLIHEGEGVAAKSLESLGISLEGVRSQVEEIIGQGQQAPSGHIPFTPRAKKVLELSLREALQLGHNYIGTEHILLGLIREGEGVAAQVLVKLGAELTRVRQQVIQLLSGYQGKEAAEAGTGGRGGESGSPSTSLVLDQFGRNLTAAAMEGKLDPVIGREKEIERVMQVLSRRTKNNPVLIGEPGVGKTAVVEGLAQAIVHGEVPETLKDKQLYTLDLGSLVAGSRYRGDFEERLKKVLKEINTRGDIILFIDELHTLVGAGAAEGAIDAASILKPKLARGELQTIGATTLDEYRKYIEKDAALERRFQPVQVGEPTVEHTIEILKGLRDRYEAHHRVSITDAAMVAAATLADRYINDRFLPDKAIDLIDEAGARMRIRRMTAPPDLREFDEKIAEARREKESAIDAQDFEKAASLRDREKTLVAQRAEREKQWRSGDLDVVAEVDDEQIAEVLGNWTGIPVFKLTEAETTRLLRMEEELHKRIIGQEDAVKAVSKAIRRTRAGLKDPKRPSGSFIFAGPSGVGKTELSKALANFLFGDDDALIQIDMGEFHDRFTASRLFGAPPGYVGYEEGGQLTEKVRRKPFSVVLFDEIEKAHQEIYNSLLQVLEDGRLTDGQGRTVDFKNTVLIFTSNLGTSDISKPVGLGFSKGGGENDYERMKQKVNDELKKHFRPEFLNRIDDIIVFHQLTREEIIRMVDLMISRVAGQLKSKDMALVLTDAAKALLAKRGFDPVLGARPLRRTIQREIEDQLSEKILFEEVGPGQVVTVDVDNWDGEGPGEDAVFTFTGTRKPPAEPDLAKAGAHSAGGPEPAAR
Sequence of ClpC1-NTD substrate, M. tuberculosis ClpC1P1P2 (P9WPC3 whole entry, further chain): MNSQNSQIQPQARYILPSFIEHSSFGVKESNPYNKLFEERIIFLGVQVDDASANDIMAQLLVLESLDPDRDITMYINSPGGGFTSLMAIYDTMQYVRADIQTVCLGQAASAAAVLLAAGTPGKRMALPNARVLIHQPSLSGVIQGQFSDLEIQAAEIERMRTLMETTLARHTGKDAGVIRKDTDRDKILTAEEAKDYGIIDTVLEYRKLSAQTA
Sequence of His6-tagged ClpC1-NTD substrate, M. smegmatis ClpC1P1P2 (P9WPC9 1-156, looked up, natural form): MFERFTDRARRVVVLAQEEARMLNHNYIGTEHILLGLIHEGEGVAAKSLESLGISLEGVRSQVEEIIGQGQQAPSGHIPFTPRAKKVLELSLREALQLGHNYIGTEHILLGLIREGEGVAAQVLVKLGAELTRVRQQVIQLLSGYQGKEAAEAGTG
Sequence of His6-tagged ClpC1-NTD substrate, M. smegmatis ClpC1P1P2 (A0R574 whole entry): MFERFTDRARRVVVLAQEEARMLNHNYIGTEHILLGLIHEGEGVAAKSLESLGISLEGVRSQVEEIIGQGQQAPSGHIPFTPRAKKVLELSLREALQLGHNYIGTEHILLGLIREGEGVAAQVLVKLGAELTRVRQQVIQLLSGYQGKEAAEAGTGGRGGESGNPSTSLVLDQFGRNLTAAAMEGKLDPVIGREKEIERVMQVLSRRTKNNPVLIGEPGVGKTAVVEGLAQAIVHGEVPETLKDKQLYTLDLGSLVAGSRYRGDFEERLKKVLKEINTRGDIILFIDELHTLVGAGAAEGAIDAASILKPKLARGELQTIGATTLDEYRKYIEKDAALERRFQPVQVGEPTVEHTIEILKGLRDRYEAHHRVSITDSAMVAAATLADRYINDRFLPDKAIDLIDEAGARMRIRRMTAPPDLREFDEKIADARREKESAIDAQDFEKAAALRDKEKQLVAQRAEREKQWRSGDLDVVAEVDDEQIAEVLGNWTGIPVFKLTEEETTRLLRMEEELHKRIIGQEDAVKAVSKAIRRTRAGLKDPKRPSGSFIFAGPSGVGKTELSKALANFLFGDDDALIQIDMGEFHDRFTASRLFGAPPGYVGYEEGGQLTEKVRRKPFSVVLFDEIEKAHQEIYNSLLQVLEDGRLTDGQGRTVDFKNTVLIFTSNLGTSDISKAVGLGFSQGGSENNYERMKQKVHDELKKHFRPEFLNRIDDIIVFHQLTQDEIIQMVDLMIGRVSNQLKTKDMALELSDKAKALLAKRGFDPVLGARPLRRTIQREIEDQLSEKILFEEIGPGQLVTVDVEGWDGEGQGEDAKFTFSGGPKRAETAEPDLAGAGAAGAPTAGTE
Sequence of ClpC1 NTD protein (M. tuberculosis) (P9WPC9 1-156, looked up, natural form): as the sequence (P9WPC9 1-156, looked up, natural form) above

Q: With `CO[C@H](c1ccccc1)[C@@H]1NC(=O)[C@H](C)NC(=O)[C@H](C[C@@H](C)CO)N(C)C(=O)[C@H](Cc2cn(C)c3ccccc23)N(C)C(=O)[C@H](Cc2cn(CCCCCn3cc(C[C@@H]4NC(=O)[C@H](CC(C)C)N(C)C(=O)[C@H](C(C)C)NC(=O)[C@H]([C@H](OC)c5ccccc5)NC(=O)[C@H](C)NC(=O)[C@H](C[C@@H](C)CO)N(C)C(=O)[C@H](Cc5cn(C)c6ccccc56)N(C)C4=O)nn3)nn2)NC(=O)[C@H](CC(C)C)N(C)C(=O)[C@H](C(C)C)NC1=O` [Compound 22] as the molecule, how does the Kd ([1]; SPR, individual measurements (source data), read-out: KD ClpC1-NTD) read?
A: 0.000764 µM and 0.00113 µM

Q: What about the “koff ClpC1-NTD” value ([1]; SPR, single independent measurements) of the same molecule?
A: 0.01 s⁻¹

Q: And the koff ([1]; SPR, single independent measurements, read-out: koff ClpC1-NTD)?
A: 0.007 s⁻¹

Q: And the Kd ([1]; SPR, read-out: ClpC1-NTD KD Mean ± SD)?
A: 0.0009 ± 0.0003 µM

Q: What about the efflux ratio (in vitro; Caco-2) of the same molecule?
A: 0.3

Q: And the Papp B→A (in vitro; Caco-2, CACO permeability PEBA)?
A: < 0.051 ×10⁻⁶ cm/s

Q: And the Papp A→B (in vitro; Caco-2, Caco-2 permeability P (A-B), apical to basolateral)?
A: 0.5 ×10⁻⁶ cm/s

Q: And the Papp B→A (in vitro; Caco-2, Caco-2 permeability P (B-A))?
A: 0.2 ×10⁻⁶ cm/s

Q: And the “Permeability Correlation P (A-B)” value (Caco-2 monolayers; influence of Trp-Nα methylation on P(A-B), matched pair, listed under the methylated partner)?
A: 0.7

Q: What about the “Permeability Correlation Ratio” value (Caco-2 monolayers; influence of Trp-Nα methylation on efflux ratio, matched pair, listed under the methylated partner) of the same molecule?
A: 1

Q: And the “Caco-2 Int. Perm” value (Caco-2 monolayers; mean value of P(A−B) and P(B−A))?
A: 0.3 10-6 cm s-1

Q: What about the “Hepatocyte Mice” value [2] of the same molecule?
A: 15 %Qh

Q: What about the “Hepatocyte Stability Rat QH” value ([3]; Rat) of the same molecule?
A: 9.923%

Q: What about the “Hepatocyte Rat” value ([3]; clearance in hepatocytes) of the same molecule?
A: 10 %Qh

Q: And the “Hepatocyte Human” value ([4]; clearance in hepatocytes)?
A: 12 %Qh

Q: What about the MIC ([5]; Mycobacterium tuberculosis, M. tuberculosis H37Rv strain, read-out: MIC Mtb H37Rv Mean ± SD) of the same molecule?
A: 3.1 µM (≈ 6.23 µg/mL)

Q: What about the MIC ([5]; Mycobacterium tuberculosis, Mtb H37Rv (Supplementary Table 2), read-out: MIC Mtb) of the same molecule?
A: 3.1 µM (≈ 6.23 µg/mL)

Q: And the MIC ([5]; Mycobacterium tuberculosis, individual measurements (source data), read-out: Mtb MIC)?
A: 3.12 µM (≈ 6.28 µg/mL)

Q: What about the MIC ([5]; Mycobacterium tuberculosis, single determinations, read-out: Mtb MIC) of the same molecule?
A: 3.12 µM (≈ 6.28 µg/mL)

Q: And the MIC ([5]; individual measurements (source data), read-out: Mtb MIC)?
A: 3.125 µM (≈ 6.28 µg/mL)

Q: What about the MIC (Msm 607; Mycolicibacterium smegmatis, 607, read-out: MIC Msm 607) of the same molecule?
A: 2.3 ± 1.1 µM (≈ 4.62 µg/mL)

Q: What about the MIC (Msm 700084; Mycolicibacterium smegmatis, 700084, single determinations, read-out: Msm 700084 MIC) of the same molecule?
A: > 50 µM

Q: What about the MIC (Msm 700084; Mycolicibacterium smegmatis, 700084, read-out: MIC Msm 700084) of the same molecule?
A: > 50 µM

Q: What does the source list for `COC(c1ccc(OCc2cn(CCOCCOCCOCCOCCn3cc(COc4ccc(C(OC)C5NC(=O)C(C)NC(=O)C(CC(C)CO)N(C)C(=O)C(Cc6cn(C)c7ccccc67)NC(=O)C(C(C)C)NC(=O)C(CC(C)C)N(C)C(=O)C(C(C)C)NC5=O)cc4)nn3)nn2)cc1)C1NC(=O)C(C)NC(=O)C(CC(C)CO)N(C)C(=O)C(Cc2cn(C)c3ccccc23)NC(=O)C(C(C)C)NC(=O)C(CC(C)C)N(C)C(=O)C(C(C)C)NC1=O` (stereo not shown) [SI-39]?
A: koff ClpC1-NTD [1]: 1E-3 7E-4 1/s; Kd ([1]; read-out: KD ClpC1-NTD): 0.000477 µM and 0.000422 µM; Kd ([1]; read-out: KD ClpC1-NTD Mean ± SD): 0.00045 ± 4e-05 µM; CACO permeability PEAB (Caco-2 monolayers; Caco-2): <0.000 cm/sec; CACO permeability PEBA (Caco-2 monolayers; Caco-2): <0.000 cm/sec; Caco-2 Int. Perm (Caco-2 monolayers; Caco-2): 2.9 10-6 cm s-1; Caco-2 permeability P (A-B) (Caco-2 monolayers; Caco-2): < 4.1 10-6 cm s-1; Caco-2 permeability P (B-A) (Caco-2 monolayers; Caco-2): < 1.7 10-6 cm s-1; Microsomal Stability Human QH [6]: 39.3%; Hepatocyte Mice [2]: 15 %Qh; Hepatocyte Rat [3]: 6 %Qh; Hepatocyte Stability Rat QH [3]: 6.192%; Hepatocyte Human [4]: 12 %Qh; Hepatocyte Stability Human QH [4]: 12.386%; MIC ([5]; Mtb H37Rv (Supplementary Table 2), read-out: MIC Mtb): 0.2 µM (≈ 0.446 µg/mL); MIC ([5]; single determinations, read-out: Mtb MIC): 0.195 µM (≈ 0.435 µg/mL); Msm 607 MIC (Msm 607; single determinations): 12.500 µM; MIC (Msm 700084; single determinations, read-out: Msm 700084 MIC): 12.500 µM (≈ 27.9 µg/mL); 1-Dmax, Mean [7]: 88%; 1-Dmax, single measurements [7]: 79.0% and 91.3% and 94.4%; DC50 ([7]; read-out: DC50, Mean): 5.8 µM; DC50 [7, 9]: 6.5 µM and 5.3 µM and 5.6 µM; 1-Dmax, Mean [8]: 73%; 1-Dmax, single measurements [8]: 79.7% and 65.9% and 73.8%; DC50 ([8]; read-out: DC50, Mean): 7.7 µM; DC50 [8, 9]: 8.5 µM and 5.9 µM and 8.7 µM
